Laboratory results from PubChem BioAssay AID330 (DTP/NCI, 2004).
Values joined by “and” are separate entries in the source; they are usually repeats but may differ in a detail not shown here. Equal entries are not always repeated. Inconclusive results and toxic doses are left out. The calls were made as follows: active = survival T/C of 150% or more; inactive = T/C below 125% in these data.

Test system: P388 leukemia ip, CD2F1 mice, survival T/C
Assay: NCI In Vivo Anticancer Drug Screen. Data for tumor model P388 Leukemia (intraperitoneal) in CD2F1 (CDF1) mice
Conditions: endpoint: median survival time, higher = longer survival
Outline: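 Mice carrying the transplanted tumor received test compound or vehicle. Survival was recorded in each group, and the value is the treated-group measurement divided by that of the vehicle-treated control group.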

[1] = dose: 100.0 mg/kg/injection, schedule: Q01DX001 (ip), vehicle: Klucel (hydroxypropylcellulose) (HPC)
[2] = dose: 200.0 mg/kg/injection, schedule: Q01DX001 (ip), vehicle: Klucel (hydroxypropylcellulose) (HPC)
[3] = dose: 12.5 mg/kg/injection, schedule: Q01DX009 (ip), vehicle: saline
[4] = dose: 25.0 mg/kg/injection, schedule: Q01DX009 (ip), vehicle: saline
[5] = dose: 25.0 mg/kg/injection, schedule: Q01DX009 (ip), vehicle: Klucel (hydroxypropylcellulose) (HPC)
[6] = dose: 50.0 mg/kg/injection, schedule: Q01DX009 (ip), vehicle: Klucel (hydroxypropylcellulose) (HPC)
[7] = dose: 100.0 mg/kg/injection, schedule: Q01DX009 (ip), vehicle: Klucel (hydroxypropylcellulose) (HPC)
[8] = dose: 100.0 mg/kg/injection, schedule: Q04DX003 (ip), vehicle: saline with Tween-80
[9] = dose: 60.0 mg/kg/injection, schedule: Q01DX005 (ip), vehicle: Klucel (hydroxypropylcellulose) (HPC)
[10] = dose: 120.0 mg/kg/injection, schedule: Q01DX005 (ip), vehicle: Klucel (hydroxypropylcellulose) (HPC)
[11] = dose: 200.0 mg/kg/injection, schedule: Q01DX009 (ip), vehicle: Klucel (hydroxypropylcellulose) (HPC)
[12] = dose: 60.0 mg/kg/injection, schedule: Q01DX005 (ip), vehicle: saline with Tween-80
[13] = dose: 120.0 mg/kg/injection, schedule: Q01DX005 (ip), vehicle: saline with Tween-80
[14] = dose: 240.0 mg/kg/injection, schedule: Q01DX005 (ip), vehicle: saline with Tween-80
[15] = dose: 50.0 mg/kg/injection, schedule: Q01DX009 (ip), vehicle: saline with Tween-80
[16] = dose: 50.0 mg/kg/injection, schedule: Q01DX009 (ip), vehicle: saline
[17] = dose: 100.0 mg/kg/injection, schedule: Q01DX009 (ip), vehicle: saline
[18] = dose: 12.5 mg/kg/injection, schedule: Q01DX005 (ip), vehicle: Klucel (hydroxypropylcellulose) (HPC)
[19] = dose: 25.0 mg/kg/injection, schedule: Q01DX005 (ip), vehicle: Klucel (hydroxypropylcellulose) (HPC)
[20] = dose: 50.0 mg/kg/injection, schedule: Q01DX005 (ip), vehicle: Klucel (hydroxypropylcellulose) (HPC)

Measured: T/C

COc1cccc(-c2nnc(-n3cc(-c4ccccc4)cc3N)s2)c1
inactive: dose: 50.0 mg/kg/injection, schedule: Q01DX001 (ip), vehicle: Klucel (hydroxypropylcellulose) (HPC) 104 % of control | [1] 95 % of control | [2] 89 % of control

c1ccc(CC[n+]2ccccc2)cc1
inactive: [3] 88 % of control | [4] 87 % of control

C(CCOCC1CO1)COCC1CO1 (stereo not given)
inactive: [5] 108 % of control and 111 % of control | [6] 110 % of control | [7] 117 % of control

[N-]=[N+]=CC(=O)Oc1ccc([N+](=O)[O-])cc1
inactive: dose: 3.13 mg/kg/injection, schedule: Q01DX009 (ip), vehicle: other 100 % of control | dose: 6.25 mg/kg/injection, schedule: Q01DX009 (ip), vehicle: other 98 % of control | dose: 12.5 mg/kg/injection, schedule: Q01DX009 (ip), vehicle: other 104 % of control | dose: 25.0 mg/kg/injection, schedule: Q01DX009 (ip), vehicle: other 98 % of control and 97 % of control | dose: 50.0 mg/kg/injection, schedule: Q01DX009 (ip), vehicle: other 89 % of control

O=C1OC2=C(CCCCC2)C(N2CCCCC2)C12SCCCS2 (stereo not given)
inactive: dose: 66.0 mg/kg/injection, schedule: Q04DX003 (ip), vehicle: saline with Tween-80 100 % of control and 96 % of control | [8] 98 % of control and 91 % of control | dose: 150.0 mg/kg/injection, schedule: Q04DX003 (ip), vehicle: saline with Tween-80 110 % of control and 93 % of control | dose: 200.0 mg/kg/injection, schedule: Q04DX003 (ip), vehicle: saline with Tween-80 104 % of control | dose: 400.0 mg/kg/injection, schedule: Q04DX003 (ip), vehicle: saline with Tween-80 93 % of control

CN(C)/N=C1/CC(=O)CC(C)(C)C1
inactive: [9] 102 % of control | [10] 100 % of control | dose: 240.0 mg/kg/injection, schedule: Q01DX005 (ip), vehicle: Klucel (hydroxypropylcellulose) (HPC) 99 % of control

CC(C)CC1N=C(NN=C(CCl)CCl)OP1(=O)NCCCCCCNP1(=O)OC(NN=C(CCl)CCl)=NC1CC(C)C (stereo not given)
inactive: [9] 106 % of control

Clc1ccc(N2C=Nc3ccc(Cl)cc3C2)cc1
inactive: [6] 100 % of control | [7] 97 % of control | [11] 98 % of control

CCOC(=O)C1CSC(c2c(COP(=O)(O)O)cnc(C)c2O)N1 (stereo not given)
inactive: dose: 50.0 mg/kg/injection, schedule: Q01DX005 (ip), vehicle: saline with Tween-80 96 % of control | dose: 100.0 mg/kg/injection, schedule: Q01DX005 (ip), vehicle: saline with Tween-80 100 % of control | dose: 200.0 mg/kg/injection, schedule: Q01DX005 (ip), vehicle: saline with Tween-80 94 % of control

CC(C)(C)n1nc(C2CC2)cc1NC(=O)Nc1ccc(Cl)cc1
inactive: [12] 93 % of control | [13] 94 % of control | [14] 91 % of control

CCOC(=O)c1cnc(Sc2c([N+](=O)[O-])ncn2C)nc1N
inactive: dose: 12.5 mg/kg/injection, schedule: Q01DX009 (ip), vehicle: Klucel (hydroxypropylcellulose) (HPC) 89 % of control | [5] 92 % of control | [6] 86 % of control and 91 % of control

O=C(O)c1c(-c2ccccc2)nn(-c2ccccc2)c1-c1ccccc1
inactive: dose: 50.0 mg/kg/injection, schedule: Q04DX003 (ip), vehicle: suspension in saline 108 % of control | dose: 100.0 mg/kg/injection, schedule: Q04DX003 (ip), vehicle: suspension in saline 106 % of control | dose: 200.0 mg/kg/injection, schedule: Q04DX003 (ip), vehicle: suspension in saline 102 % of control

CCSC(=O)c1cc(C(=O)SCC)cc(C(C)(C)C)c1
inactive: [4] 100 % of control and 105 % of control | [15] 100 % of control | [16] 98 % of control and 95 % of control | dose: 100.0 mg/kg/injection, schedule: Q01DX009 (ip), vehicle: saline with Tween-80 114 % of control | [17] 98 % of control and 101 % of control | dose: 200.0 mg/kg/injection, schedule: Q01DX009 (ip), vehicle: saline with Tween-80 124 % of control | dose: 200.0 mg/kg/injection, schedule: Q01DX009 (ip), vehicle: saline 107 % of control and 97 % of control

O=N[O-].O=N[O-].O=[N+]([O-])O.[Co+3].[NH-]CC[NH-].[NH-]CC[NH-]
inactive: [3] 104 % of control | [4] 98 % of control | [16] 100 % of control and 98 % of control | [17] 100 % of control

Cc1ccc2c(=O)n3cc(CCC#N)cc3c(=O)[nH]c2c1O
inactive: [1] 99 % of control | [2] 89 % of control | dose: 400.0 mg/kg/injection, schedule: Q01DX001 (ip), vehicle: Klucel (hydroxypropylcellulose) (HPC) 92 % of control

C=C(C)C(=NC(C)C)Nc1ccccc1
inactive: dose: 6.25 mg/kg/injection, schedule: Q01DX005 (ip), vehicle: Klucel (hydroxypropylcellulose) (HPC) 103 % of control and 104 % of control | [18] 107 % of control and 123 % of control and 96 % of control | [19] 99 % of control and 104 % of control and 106 % of control

C=CCc1ccccc1OC
inactive: dose: 50.0 mg/kg/injection, schedule: Q04DX003 (ip), vehicle: saline 100 % of control | dose: 100.0 mg/kg/injection, schedule: Q04DX003 (ip), vehicle: saline 95 % of control | dose: 200.0 mg/kg/injection, schedule: Q04DX003 (ip), vehicle: saline 100 % of control

CCCCCCCCCCCC1=C(O)C(=O)C(CC2=C(O)C(=O)C(CCCCCCCCCCC)=C(O)C2=O)=C(O)C1=O
inactive: dose: 25.0 mg/kg/injection, schedule: Q01DX005 (ip), vehicle: Klucel + Tween-80 97 % of control | [20] 86 % of control | dose: 50.0 mg/kg/injection, schedule: Q01DX005 (ip), vehicle: Klucel + Tween-80 91 % of control | dose: 100.0 mg/kg/injection, schedule: Q01DX005 (ip), vehicle: Klucel + Tween-80 91 % of control | dose: 200.0 mg/kg/injection, schedule: Q01DX005 (ip), vehicle: Klucel (hydroxypropylcellulose) (HPC) 89 % of control

O=C(O)c1c(O)ccc(O)c1C(=O)O
inactive: [12] 101 % of control | [13] 92 % of control | [14] 97 % of control

COP1(=O)OC(C)=C(C)c2cccn21 (stereo not given)
inactive: dose: 25.0 mg/kg/injection, schedule: Q04DX003 (ip), vehicle: saline with Tween-80 103 % of control | dose: 50.0 mg/kg/injection, schedule: Q04DX003 (ip), vehicle: saline with Tween-80 106 % of control | [8] 99 % of control and 96 % of control

CC(C)=CCc1c(C)cc2cc3c(c(O)c2c1O)C(O)=CC(=O)C3(CC=C(C)C)CC=C(CO)CO (stereo not given)
inactive: [19] 97 % of control | [20] 93 % of control | dose: 100.0 mg/kg/injection, schedule: Q01DX005 (ip), vehicle: Klucel (hydroxypropylcellulose) (HPC) 94 % of control

O=C1C=C(Cl)C(=O)C(c2ccccc2)=C1Cl
inactive: [18] 96 % of control | [19] 91 % of control

C/C(=N\N)C1=NNC(C)(C)NN1
inactive: [6] 96 % of control | [7] 96 % of control | [11] 98 % of control

CC(Br)C(=O)c1ccc2cc(Br)c3ccccc3c2c1 (stereo not given)
inactive: dose: 12.5 mg/kg/injection, schedule: Q01DX009 (ip), vehicle: saline with Tween-80 100 % of control | dose: 25.0 mg/kg/injection, schedule: Q01DX009 (ip), vehicle: saline with Tween-80 106 % of control | [15] 116 % of control

S=c1c(-c2ccccc2)cnc2sccn12
inactive: [12] 100 % of control | [13] 96 % of control | [14] 98 % of control

CCN(CC)CCCC(C)Nc1ccc2ccc(Cl)cc2n1 (stereo not given)
inactive: dose: 50.0 mg/kg/injection, schedule: Q01DX005 (ip), vehicle: saline + Tween-80 + alcohol 101 % of control | dose: 100.0 mg/kg/injection, schedule: Q01DX005 (ip), vehicle: saline + Tween-80 + alcohol 101 % of control | dose: 200.0 mg/kg/injection, schedule: Q01DX005 (ip), vehicle: saline + Tween-80 + alcohol 100 % of control

COC(=O)c1ccc(C(=O)OC)c2nc3cc(C)c(C)cc3nc12
inactive: [9] 96 % of control | [10] 98 % of control

N#CC(NCC1(O)CCCCC1)C(O)c1ccccc1 (stereo not given)
inactive: dose: 25.0 mg/kg/injection, schedule: Q01DX009 (ip), vehicle: suspension in saline 94 % of control | dose: 50.0 mg/kg/injection, schedule: Q01DX009 (ip), vehicle: suspension in saline 108 % of control | dose: 100.0 mg/kg/injection, schedule: Q01DX009 (ip), vehicle: suspension in saline 109 % of control
